Legend:
[1] = target: CDK1/Cyclin A (Homo sapiens, UniProt P06493); assay: Inhibition of CDK1/Cyclin-A2 (unknown origin) using histone-H1 as substrate after 90 mins by ADP-Glo assay; type: protein-complex assay
[2] = organism: Homo sapiens; assay: Selectivity ratio of IC50 for CDK1/Cyclin-A2 (unknown origin) to IC50 for CDK6/Cyclin-D3 (unknown origin)
[3] = target: Cyclin-dependent kinase 4/cyclin D1 (Homo sapiens, UniProt P11802); assay: Inhibition of CDK4/Cyclin-D1 (unknown origin) using histone-H1 as substrate after 90 mins by ADP-Glo assay; type: protein-complex assay
Sequence of Cyclin-dependent kinase 4/cyclin D1 (P11802 whole entry): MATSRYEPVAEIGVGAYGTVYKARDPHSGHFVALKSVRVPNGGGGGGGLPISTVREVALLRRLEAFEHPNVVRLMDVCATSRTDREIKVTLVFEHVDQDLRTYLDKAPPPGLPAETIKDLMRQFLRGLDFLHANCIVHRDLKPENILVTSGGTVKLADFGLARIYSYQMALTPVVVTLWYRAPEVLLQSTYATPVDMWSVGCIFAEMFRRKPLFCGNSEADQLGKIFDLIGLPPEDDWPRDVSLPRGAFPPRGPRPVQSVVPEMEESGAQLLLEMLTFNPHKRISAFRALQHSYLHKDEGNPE
Sequence of Cyclin-dependent kinase 4/cyclin D1 (P24385 whole entry, further chain): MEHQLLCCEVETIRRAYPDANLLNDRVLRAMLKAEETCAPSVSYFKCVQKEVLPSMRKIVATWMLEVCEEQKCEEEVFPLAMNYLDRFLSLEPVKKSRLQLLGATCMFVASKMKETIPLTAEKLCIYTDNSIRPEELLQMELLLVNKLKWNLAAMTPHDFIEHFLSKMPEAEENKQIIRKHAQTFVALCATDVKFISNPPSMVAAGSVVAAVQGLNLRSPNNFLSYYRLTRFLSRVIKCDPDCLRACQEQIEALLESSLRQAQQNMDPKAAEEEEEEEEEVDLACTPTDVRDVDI

[4] = target: CDK6/cyclin D3 (Homo sapiens, UniProt Q00534); assay: Inhibition of CDK6/Cyclin-D3 (unknown origin) using histoneH1 as substrate after 90 mins by ADP-Glo assay; type: protein-complex assay
Sequence of CDK6/cyclin D3 (P30281 whole entry): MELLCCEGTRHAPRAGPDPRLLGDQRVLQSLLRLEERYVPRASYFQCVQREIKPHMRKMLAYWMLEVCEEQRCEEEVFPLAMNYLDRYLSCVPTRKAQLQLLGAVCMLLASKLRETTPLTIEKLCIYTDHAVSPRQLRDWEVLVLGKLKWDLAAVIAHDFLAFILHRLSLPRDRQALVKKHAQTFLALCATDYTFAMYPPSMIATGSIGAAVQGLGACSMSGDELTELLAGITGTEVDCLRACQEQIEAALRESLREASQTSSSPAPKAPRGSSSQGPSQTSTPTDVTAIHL
Sequence of CDK6/cyclin D3 (Q00534 whole entry): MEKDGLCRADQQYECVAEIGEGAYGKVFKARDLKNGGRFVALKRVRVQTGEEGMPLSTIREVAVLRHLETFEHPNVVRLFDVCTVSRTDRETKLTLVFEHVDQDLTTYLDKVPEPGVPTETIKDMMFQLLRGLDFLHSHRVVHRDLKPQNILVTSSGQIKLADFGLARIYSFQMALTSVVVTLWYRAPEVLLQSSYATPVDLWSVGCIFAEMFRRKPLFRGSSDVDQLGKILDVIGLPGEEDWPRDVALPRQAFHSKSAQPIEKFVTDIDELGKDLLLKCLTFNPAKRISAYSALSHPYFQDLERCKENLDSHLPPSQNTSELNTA

[5] = Oral bioavailability in Sprague-Dawley rat at 5 mg/kg administered as single dose by LC-MS/MS analysis; type: ADME, organism-based; settings: Sprague-Dawley, in vivo
[6] = AUC (0 to 24 hrs) in Sprague-Dawley rat at 2 mg/kg, iv administered as single dose by LC-MS/MS analysis; type: ADME, organism-based; parameters: dose 2 mg/kg, time < 24 hr, route intravenous; settings: in vivo
[7] = AUC (0 to infinity) in Sprague-Dawley rat at 2 mg/kg, iv administered as single dose by LC-MS/MS analysis; type: ADME, organism-based; parameters: dose 2 mg/kg, route intravenous, time infinity; settings: Sprague-Dawley, in vivo
[8] = Volume of distribution at steady state in Sprague-Dawley rat at 2 mg/kg, iv administered as single dose by LC-MS/MS analysis; type: ADME, organism-based; settings: in vivo, read-out: Vdss
[9] = Cmax in Sprague-Dawley rat at 5 mg/kg, po administered as single dose by LC-MS/MS analysis; type: ADME, organism-based; parameters: dose 5 mg/kg, route oral; settings: in vivo
[10] = AUC (0 to 24 hrs) in Sprague-Dawley rat at 5 mg/kg, po administered as single dose by LC-MS/MS analysis; type: ADME, organism-based; parameters: time < 24 hr, dose 5 mg/kg, route oral; settings: in vivo
[11] = Half life in Sprague-Dawley rat at 2 mg/kg, iv administered as single dose by LC-MS/MS analysis; type: ADME, organism-based; settings: in vivo
[12] = Clearance in Sprague-Dawley rat at 2 mg/kg, iv administered as single dose by LC-MS/MS analysis; type: ADME, organism-based; settings: in vivo
[13] = AUC (0 to infinity) in Sprague-Dawley rat at 5 mg/kg, po administered as single dose by LC-MS/MS analysis; type: ADME, organism-based; parameters: dose 5 mg/kg, route oral, time infinity; settings: Sprague-Dawley, in vivo
[14] = Half life in Sprague-Dawley rat at 5 mg/kg, po administered as single dose by LC-MS/MS analysis; type: ADME, organism-based; settings: in vivo

Sequence of CDK1/Cyclin A (P06493 whole entry): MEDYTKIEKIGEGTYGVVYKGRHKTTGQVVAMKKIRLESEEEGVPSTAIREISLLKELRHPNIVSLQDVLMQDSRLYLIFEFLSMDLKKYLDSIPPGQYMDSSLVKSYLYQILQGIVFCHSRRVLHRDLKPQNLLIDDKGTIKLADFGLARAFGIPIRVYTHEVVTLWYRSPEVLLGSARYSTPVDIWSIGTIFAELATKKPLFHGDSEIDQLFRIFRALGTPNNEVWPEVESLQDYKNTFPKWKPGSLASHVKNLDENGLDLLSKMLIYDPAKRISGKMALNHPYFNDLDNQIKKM
Sequence of CDK1/Cyclin A (P20248 whole entry, further chain): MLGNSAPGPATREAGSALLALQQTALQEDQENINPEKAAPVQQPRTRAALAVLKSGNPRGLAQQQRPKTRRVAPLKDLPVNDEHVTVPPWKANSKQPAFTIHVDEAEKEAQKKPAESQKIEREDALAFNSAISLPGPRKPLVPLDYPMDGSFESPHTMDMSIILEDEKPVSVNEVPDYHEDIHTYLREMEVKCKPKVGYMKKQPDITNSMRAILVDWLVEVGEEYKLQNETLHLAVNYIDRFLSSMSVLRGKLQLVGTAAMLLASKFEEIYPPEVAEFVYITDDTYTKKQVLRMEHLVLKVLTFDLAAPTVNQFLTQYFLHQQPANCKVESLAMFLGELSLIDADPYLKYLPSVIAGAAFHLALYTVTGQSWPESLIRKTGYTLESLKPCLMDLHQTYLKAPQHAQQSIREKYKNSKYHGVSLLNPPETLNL

Structure (SMILES) | IC50 [1] [nM] | Ratio IC50 [2] | IC50 [3] [nM] | IC50 [4] [nM] | bioavailability [5] [%] | AUC(0-t) at 24 h [6] [ng·h/mL] | AUC(0-inf) [7] [ng·h/mL] | Vd [8] [L/kg] | Cmax [9] [ng/mL] | AUC(0-t) at 24 h [10] [ng·h/mL] | half-life [11] [min] | clearance [12] [mL/min/kg] | AUC(0-inf) [13] [ng·h/mL] | half-life [14] [min]
CCC1(C)C(C)=Nc2ccc(-c3nc(Nc4ccc(N5CCN(C)CC5)cn4)ncc3F)cc21 (stereo not given) | 112 | 22 | 35 | 5 |  |  |  |  |  |  |  |  |  | 
CCC1(CC)C(C)=Nc2c(F)cc(-c3nc(Nc4ccc(N5CCNCC5)cn4)ncc3F)cc21 |  | 27 | 3 | 3 | 16 | 256 | 270 | 28.1 | 13.7 | 106 | 180 | 125 |  | 
CC1=Nc2c(F)cc(-c3nc(Nc4ccc(N5CCN(CCO)CC5)cn4)ncc3F)cc2C12CCCC2 |  | 55 | 17 | 6 |  |  |  |  |  |  |  |  |  | 
CCC1(C)C(C)=Nc2c(F)cc(-c3nc(Nc4ccc(N5CCNCC5)cn4)ncc3F)cc21 (stereo not given) | 84 | 28 | 44 | 3 | 23 | 256 | 270 | 28.1 | 18 | 145 | 180 | 125 |  | 
CCN1CCN(c2ccc(Nc3ncc(F)c(-c4cc(F)c5c(c4)C4(CCCC4)C(C)=N5)n3)nc2)CC1 |  |  | 18 | 16 | 16 | 2110 | 2230 | 5.7 | 70.4 | 842 | 420 | 15 | 1360 | 588
CCC1(C)C(C)=Nc2c(F)cc(-c3nc(Nc4ccc(C5CCN(C)CC5)cn4)ncc3F)cc21 (stereo not given) | 131 | 14 | 16 | 9 | 28 | 404 | 447 | 40.1 | 22.3 | 287 | 420 | 77.8 |  | 
CCN1CCC(c2ccc(Nc3ncc(F)c(-c4ccc5c(c4)C4(CCCC4)C(C)=N5)n3)nc2)CC1 |  | 5 |  |  |  |  |  |  |  |  |  |  |  | 
CCC1(C)C(C)=Nc2ccc(-c3nc(Nc4ccc(C5CCNCC5)cn4)ncc3F)cc21 (stereo not given) | 166 | 10 |  | 16 |  |  |  |  |  |  |  |  |  | 
CCN1CCN(Cc2ccc(Nc3ncc(F)c(-c4ccc5c(c4)C4(CCCC4)C(C)=N5)n3)nc2)CC1 |  | 38 | 13 | 7 |  |  |  |  |  |  |  |  |  | 
CC1=Nc2ccc(-c3nc(Nc4ccc(N5CCN(C)CC5)cn4)ncc3F)cc2C12CCCC2 |  | 46 | 15 | 9 | 24 | 442 | 458 | 15.7 | 28.9 | 269 | 288 | 72.9 | 382 | 
CC1=Nc2c(F)cc(-c3nc(Nc4ccc(C5CCNCC5)cn4)ncc3F)cc2C12CCCC2 |  | 818 | 8 | 0.4 | 29 | 1200 | 1370 | 15.6 | 62.1 | 867 | 516 | 24.6 |  | 
CC1=Nc2c(F)cc(-c3nc(Nc4ccc(N5CCN(C)CC5)cn4)ncc3F)cc2C12CCCC2 |  | 16 |  |  | 21 | 761 | 796 | 8.5 | 37 | 386 | 228 | 42.3 | 420 | 306
CCN1CCC(c2ccc(Nc3ncc(F)c(-c4ccc5c(c4)C(C)(CC)C(C)=N5)n3)nc2)CC1 (stereo not given) | 125 | 6 | 42 | 19 |  |  |  |  |  |  |  |  |  | 
CCC1(C)C(C)=Nc2ccc(-c3nc(Nc4ccc(C5CCN(C)CC5)cn4)ncc3F)cc21 (stereo not given) | 54 | 6 | 18 | 9 |  |  |  |  |  |  |  |  |  | 
CC1=Nc2ccc(-c3nc(Nc4ccc(N5CCNCC5)cn4)ncc3F)cc2C12CCCC2 |  | 58 | 4 | 4 | 34 | 1140 | 1180 | 11 | 80.3 | 980 | 288 | 28.3 |  | 
CCN1CCN(Cc2ccc(Nc3ncc(F)c(-c4cc(F)c5c(c4)C(CC)(CC)C(C)=N5)n3)nc2)CC1 |  | 9 |  |  |  |  |  |  |  |  |  |  |  | 

From ChEMBL document CHEMBL4251601 (Eur J Med Chem, 2018)
